Among the data in BindingDB's records for doi:10.1210/en.2002-221074 (National Institute of Diabetes and Digestive and Kidney …, 2003) are Ki values, retold here.

Assay [1] deals with T1, Thyrotropin-releasing hormone receptor (Xenopus laevis, UniProt Q9DDR1).
T1 sequence (Q9DDR1 whole entry): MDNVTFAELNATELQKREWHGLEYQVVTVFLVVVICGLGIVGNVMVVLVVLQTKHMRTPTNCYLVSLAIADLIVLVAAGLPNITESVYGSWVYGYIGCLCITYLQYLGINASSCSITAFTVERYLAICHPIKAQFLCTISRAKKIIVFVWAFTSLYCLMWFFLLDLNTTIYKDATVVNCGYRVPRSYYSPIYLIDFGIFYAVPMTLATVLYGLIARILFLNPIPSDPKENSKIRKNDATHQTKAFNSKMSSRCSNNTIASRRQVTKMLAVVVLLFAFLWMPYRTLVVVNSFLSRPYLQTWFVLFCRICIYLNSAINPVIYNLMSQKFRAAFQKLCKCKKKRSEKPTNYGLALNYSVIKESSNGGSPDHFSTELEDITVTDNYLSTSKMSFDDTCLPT

Assay [2] addresses T2, Pro-thyrotropin-releasing hormone-B (Xenopus sp., UniProt Q00643).
T2 sequence (Q00643 whole entry): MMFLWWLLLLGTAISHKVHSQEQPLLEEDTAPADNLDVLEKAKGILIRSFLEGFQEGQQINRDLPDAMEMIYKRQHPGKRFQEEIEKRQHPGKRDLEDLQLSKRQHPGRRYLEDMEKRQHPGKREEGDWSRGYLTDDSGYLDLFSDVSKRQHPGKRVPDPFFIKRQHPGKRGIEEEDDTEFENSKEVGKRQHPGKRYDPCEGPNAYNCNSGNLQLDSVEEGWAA

Assay [3] deals with T3, Thyrotropin-releasing hormone receptor (Mus musculus, UniProt P21761).
T3 sequence (P21761 whole entry): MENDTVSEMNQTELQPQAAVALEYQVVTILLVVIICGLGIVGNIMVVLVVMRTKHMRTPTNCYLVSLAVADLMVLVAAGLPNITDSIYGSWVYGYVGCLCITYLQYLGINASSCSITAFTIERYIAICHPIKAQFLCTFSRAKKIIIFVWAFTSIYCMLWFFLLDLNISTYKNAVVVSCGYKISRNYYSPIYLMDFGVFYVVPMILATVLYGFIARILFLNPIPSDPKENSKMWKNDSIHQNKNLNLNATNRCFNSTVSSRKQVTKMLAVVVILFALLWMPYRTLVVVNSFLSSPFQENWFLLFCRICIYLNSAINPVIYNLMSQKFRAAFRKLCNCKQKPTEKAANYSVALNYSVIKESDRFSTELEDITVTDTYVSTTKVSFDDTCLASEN

The structures appear in SMILES notation.

By Ki is commonly meant the dissociation constant of the complex between target and ligand, obtained from inhibition or displacement. Low readings indicate a stronger hold on the target, high ones a looser hold on the target. Turning to `NC(=O)C1CCCN1C(=O)C(Cc1cnc[nH]1)NC(=O)C1CCC(=O)C1` (stereo not given) [Desaza1TRH], the results for the inhibitory constant (Ki) in assay [1] and in assay [2] were 3 µM and more than 10 µM, respectively.

As to `NC(=O)C1CCCN1C(=O)C(Cc1cnc[nH]1)NC(=O)[C@@H]1CCC(=O)C1` (stereo not given in full) [Pyr3TRH], the Ki in assay [3], in assay [1] and in assay [2] was more than 10 µM throughout.
